Measurements taken from patent publication US10206394B2, “Herbicidal compounds” (Syngenta Participations AG, priority 2014, dated 2019).
Like-named read-outs stand apart in the source and are kept apart here.

Columns and labels:
Assay in all cases: Glasshouse assay for herbicidal activity (pre- and post-emergence), percentage phytotoxicity
Format in all cases: in vivo
[1] = system: Alopecurus myosuroides (ALOMY); conditions: Alopecurus myosuroides
Outline: (§1)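 Visual phytotoxicity score, 0% = undamaged to 100% = total kill, read 20 days after treatment for PRE and 15 days for POST. Pots of standard soil; treatment at day 1 (PRE) or roughly day 12 (POST). Glasshouse: 16 h photoperiod, 65% RH, 24/18 or 20/16 °C by climate type.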

Avena fatua (AVEFA) = conditions: Avena fatua
Outline: as §1

[2] = system: Echinochloa crus-galli (ECHCG); conditions: Echinochloa crus-galli
Outline: as §1

Lolium perenne (LOLPE) = conditions: Lolium perenne
Outline: as §1

[3] = post-emergence, 360 h, 250 g/ha, post-emergence, 15 DAA, visual assessment (100%=total damage, 0%=no damage), read-out: Post-emergence herbicidal activity (percentage phytotoxicity) ALOMY POST
[4] = pre-emergence, 480 h, 250 g/ha, pre-emergence, 20 DAA, visual assessment (100%=total damage, 0%=no damage), read-out: Pre-emergence herbicidal activity (percentage phytotoxicity) ALOMY PRE
[5] = post-emergence, 360 h, 250 g/ha, post-emergence, 15 DAA, visual assessment (100%=total damage, 0%=no damage), read-out: Post-emergence herbicidal activity (percentage phytotoxicity) AVEFA POST
[6] = pre-emergence, 480 h, 250 g/ha, pre-emergence, 20 DAA, visual assessment (100%=total damage, 0%=no damage), read-out: Pre-emergence herbicidal activity (percentage phytotoxicity) AVEFA PRE
[7] = post-emergence, 360 h, 250 g/ha, post-emergence, 15 DAA, visual assessment (100%=total damage, 0%=no damage), read-out: Post-emergence herbicidal activity (percentage phytotoxicity) ECHCG POST
[8] = pre-emergence, 480 h, 250 g/ha, pre-emergence, 20 DAA, visual assessment (100%=total damage, 0%=no damage), read-out: Pre-emergence herbicidal activity (percentage phytotoxicity) ECHCG PRE
[9] = post-emergence, 360 h, 250 g/ha, post-emergence, 15 DAA, visual assessment (100%=total damage, 0%=no damage), read-out: Post-emergence herbicidal activity (percentage phytotoxicity) LOLPE POST
[10] = pre-emergence, 480 h, 250 g/ha, pre-emergence, 20 DAA, visual assessment (100%=total damage, 0%=no damage), read-out: Pre-emergence herbicidal activity (percentage phytotoxicity) LOLPE PRE
[11] = post-emergence, 360 h, Rate 250 g/ha, post-emergence, assessed visually 15 DAA, 100%=total damage, 0%=no damage, read-out: Post-emergence herbicidal activity (percentage phytotoxicity) ALOMY POST
[12] = pre-emergence, 480 h, Rate 250 g/ha, pre-emergence, assessed visually 20 DAA, 100%=total damage, 0%=no damage, read-out: Pre-emergence herbicidal activity (percentage phytotoxicity) ALOMY PRE
[13] = post-emergence, 360 h, Rate 250 g/ha, post-emergence, assessed visually 15 DAA, 100%=total damage, 0%=no damage, read-out: Post-emergence herbicidal activity (percentage phytotoxicity) AVEFA POST
[14] = pre-emergence, 480 h, Rate 250 g/ha, pre-emergence, assessed visually 20 DAA, 100%=total damage, 0%=no damage, read-out: Pre-emergence herbicidal activity (percentage phytotoxicity) AVEFA PRE
[15] = post-emergence, 360 h, Rate 250 g/ha, post-emergence, assessed visually 15 DAA, 100%=total damage, 0%=no damage, read-out: Post-emergence herbicidal activity (percentage phytotoxicity) ECHCG POST
[16] = pre-emergence, 480 h, Rate 250 g/ha, pre-emergence, assessed visually 20 DAA, 100%=total damage, 0%=no damage, read-out: Pre-emergence herbicidal activity (percentage phytotoxicity) ECHCG PRE
[17] = post-emergence, 360 h, Rate 250 g/ha, post-emergence, assessed visually 15 DAA, 100%=total damage, 0%=no damage, read-out: Post-emergence herbicidal activity (percentage phytotoxicity) LOLPE POST
[18] = pre-emergence, 480 h, Rate 250 g/ha, pre-emergence, assessed visually 20 DAA, 100%=total damage, 0%=no damage, read-out: Pre-emergence herbicidal activity (percentage phytotoxicity) LOLPE PRE
[19] = post-emergence, 360 h, POST-emergence, rate 250 g/ha, visual score 15 DAA (100%=total damage, 0%=no damage), read-out: Post-emergence herbicidal activity (percentage phytotoxicity) ALOMY POST
[20] = pre-emergence, 480 h, PRE-emergence, rate 250 g/ha, visual score 20 DAA (100%=total damage, 0%=no damage), read-out: Pre-emergence herbicidal activity (percentage phytotoxicity) ALOMY PRE
[21] = post-emergence, 360 h, POST-emergence, rate 250 g/ha, visual score 15 DAA (100%=total damage, 0%=no damage), read-out: Post-emergence herbicidal activity (percentage phytotoxicity) AVEFA POST
[22] = pre-emergence, 480 h, PRE-emergence, rate 250 g/ha, visual score 20 DAA (100%=total damage, 0%=no damage), read-out: Pre-emergence herbicidal activity (percentage phytotoxicity) AVEFA PRE
[23] = post-emergence, 360 h, POST-emergence, rate 250 g/ha, visual score 15 DAA (100%=total damage, 0%=no damage), read-out: Post-emergence herbicidal activity (percentage phytotoxicity) ECHCG POST
[24] = pre-emergence, 480 h, PRE-emergence, rate 250 g/ha, visual score 20 DAA (100%=total damage, 0%=no damage), read-out: Pre-emergence herbicidal activity (percentage phytotoxicity) ECHCG PRE
[25] = post-emergence, 360 h, POST-emergence, rate 250 g/ha, visual score 15 DAA (100%=total damage, 0%=no damage), read-out: Post-emergence herbicidal activity (percentage phytotoxicity) LOLPE POST
[26] = pre-emergence, 480 h, PRE-emergence, rate 250 g/ha, visual score 20 DAA (100%=total damage, 0%=no damage), read-out: Pre-emergence herbicidal activity (percentage phytotoxicity) LOLPE PRE

Row | Structure (SMILES) | pest or weed control at 250 g/ha [1, 3] [%] | pest or weed control at 250 g/ha [1, 4] [%] | pest or weed control at 250 g/ha (Avena fatua (AVEFA); [5]) [%] | pest or weed control at 250 g/ha (Avena fatua (AVEFA); [6]) [%] | pest or weed control at 250 g/ha [2, 7] [%] | pest or weed control at 250 g/ha [2, 8] [%] | pest or weed control at 250 g/ha (Lolium perenne (LOLPE); [9]) [%] | pest or weed control at 250 g/ha (Lolium perenne (LOLPE); [10]) [%] | pest or weed control at 250 g/ha [1, 11] [%] | pest or weed control at 250 g/ha [1, 12] [%] | pest or weed control at 250 g/ha (Avena fatua (AVEFA); [13]) [%] | pest or weed control at 250 g/ha (Avena fatua (AVEFA); [14]) [%] | pest or weed control at 250 g/ha [2, 15] [%] | pest or weed control at 250 g/ha [2, 16] [%] | pest or weed control at 250 g/ha (Lolium perenne (LOLPE); [17]) [%] | pest or weed control at 250 g/ha (Lolium perenne (LOLPE); [18]) [%] | pest or weed control at 250 g/ha [1, 19] [%] | pest or weed control at 250 g/ha [1, 20] [%] | pest or weed control at 250 g/ha (Avena fatua (AVEFA); [21]) [%] | pest or weed control at 250 g/ha (Avena fatua (AVEFA); [22]) [%] | further results
1 | COc1ccc(CNC(=O)CC2CC(=O)C(c3c(C)cc(-c4ncc(Cl)cn4)cc3C)C2=O)cc1 (centres unmarked) [Compound B356] |  |  |  |  |  |  |  |  |  |  |  |  |  |  |  |  |  |  |  |  | pest or weed control at 250 g/ha ([1]; post-emergence, 360 h, Rate 250 g/ha, post-emergence, visual assessment 15 DAA, 100%=total damage, 0%=no damage, read-out: Post-emergence herbicidal activity (percentage phytotoxicity) ALOMY POST): 90%; pest or weed control at 250 g/ha ([1]; pre-emergence, 480 h, Rate 250 g/ha, pre-emergence, visual assessment 20 DAA, 100%=total damage, 0%=no damage, read-out: Pre-emergence herbicidal activity (percentage phytotoxicity) ALOMY PRE): 60%; pest or weed control at 250 g/ha (Avena fatua (AVEFA); post-emergence, 360 h, Rate 250 g/ha, post-emergence, visual assessment 15 DAA, 100%=total damage, 0%=no damage, read-out: Post-emergence herbicidal activity (percentage phytotoxicity) AVEFA POST): 100%; pest or weed control at 250 g/ha (Avena fatua (AVEFA); pre-emergence, 480 h, Rate 250 g/ha, pre-emergence, visual assessment 20 DAA, 100%=total damage, 0%=no damage, read-out: Pre-emergence herbicidal activity (percentage phytotoxicity) AVEFA PRE): 60%; pest or weed control at 250 g/ha ([2]; post-emergence, 360 h, Rate 250 g/ha, post-emergence, visual assessment 15 DAA, 100%=total damage, 0%=no damage, read-out: Post-emergence herbicidal activity (percentage phytotoxicity) ECHCG POST): 100%; pest or weed control at 250 g/ha ([2]; pre-emergence, 480 h, Rate 250 g/ha, pre-emergence, visual assessment 20 DAA, 100%=total damage, 0%=no damage, read-out: Pre-emergence herbicidal activity (percentage phytotoxicity) ECHCG PRE): 100%; pest or weed control at 250 g/ha (Lolium perenne (LOLPE); post-emergence, 360 h, Rate 250 g/ha, post-emergence, visual assessment 15 DAA, 100%=total damage, 0%=no damage, read-out: Post-emergence herbicidal activity (percentage phytotoxicity) LOLPE POST): 100%; pest or weed control at 250 g/ha (Lolium perenne (LOLPE); pre-emergence, 480 h, Rate 250 g/ha, pre-emergence, visual assessment 20 DAA, 100%=total damage, 0%=no damage, read-out: Pre-emergence herbicidal activity (percentage phytotoxicity) LOLPE PRE): 80%
2 | Cc1cc(-c2ncc(F)cc2F)cc(C)c1C1C(=O)C[C@@H](CC(=O)NC(C)(C)C)C1=O (some centres unmarked) [Compound B51] | 100 | 90 | 100 | 80 | 100 | 100 | 100 | 100 |  |  |  |  |  |  |  |  |  |  |  |  | 
3 | CC#Cc1cc(C)c(C2C(=O)CC(CC(=O)NC(C)(C)CC)C2=O)c(C)c1 (centres unmarked) [Compound A60] |  |  |  |  |  |  |  |  | 100 | 100 | 100 | 100 | 100 | 100 | 90 | 100 |  |  |  |  | 
4 | Cc1cc(C)c(C2C(=O)CC(CC(=O)N3CCSCC3)C2=O)c(C)c1 (centres unmarked) [Compound A163] |  |  |  |  |  |  |  |  | 30 | 10 | 30 | 30 | 70 | 70 | 60 | 60 |  |  |  |  | 
5 | Cc1cc(-c2ncc(Cl)cc2F)cc(C)c1C1C(=O)CC(CC(=O)NCc2ncc(C(F)(F)F)cc2Cl)C1=O (centres unmarked) [Compound A113] |  |  |  |  |  |  |  |  | 100 | 80 | 100 | 90 | 100 | 100 | 100 | 90 |  |  |  |  | 
6 | C#CCNC(=O)CC1CC(=O)C(c2c(C)cc(OCC(F)(F)F)cc2CC)C1=O (centres unmarked) [Compound B166] |  |  |  |  |  |  |  |  |  |  |  |  |  |  |  |  | 100 | 100 | 100 | 100 | pest or weed control at 250 g/ha [2, 23]: 100%; pest or weed control at 250 g/ha [2, 24]: 100%; pest or weed control at 250 g/ha (Lolium perenne (LOLPE); [25]): 100%; pest or weed control at 250 g/ha (Lolium perenne (LOLPE); [26]): 100%
7 | CCc1cc(C)cc(C)c1C1C(=O)CC(CC(=O)NC(C)C)C1=O (centres unmarked) [Compound B255] |  |  |  |  |  |  |  |  |  |  |  |  |  |  |  |  | 100 | 100 | 100 | 80 | pest or weed control at 250 g/ha [2, 23]: 100%; pest or weed control at 250 g/ha [2, 24]: 100%; pest or weed control at 250 g/ha (Lolium perenne (LOLPE); [25]): 100%; pest or weed control at 250 g/ha (Lolium perenne (LOLPE); [26]): 100%
8 | COc1ccc(CNC(=O)CC2CC(=O)C(c3c(C)cc(-n4cc(Cl)cn4)cc3C)C2=O)cc1 (centres unmarked) [Compound B224] |  |  |  |  |  |  |  |  |  |  |  |  |  |  |  |  | 80 | 80 | 80 | 50 | pest or weed control at 250 g/ha [2, 23]: 90%; pest or weed control at 250 g/ha [2, 24]: 70%; pest or weed control at 250 g/ha (Lolium perenne (LOLPE); [25]): 80%; pest or weed control at 250 g/ha (Lolium perenne (LOLPE); [26]): 70%
9 | Cc1cc(-c2ccc(C#N)cn2)cc(C)c1C1C(=O)CC(CC(=O)NC(C)(C)C)C1=O (centres unmarked) [Compound B75] | 100 | 100 | 100 | 90 | 100 | 100 | 100 | 90 |  |  |  |  |  |  |  |  |  |  |  |  | 
10 | C#CC(C)NC(=O)CC1CC(=O)C(c2c(C)cc(C)cc2C)C1=O (centres unmarked) [Compound B56] | 90 | 80 | 90 | 70 | 90 | 90 | 90 | 80 |  |  |  |  |  |  |  |  |  |  |  |  | 
